# In PubChem BioAssay (NCI):
#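 Protocol summary: plate cells (96-well), add compound at 5 concentrations, incubate 48 h, interpolate endpoints linearly. The concentration for 50% growth inhibition is given as GI50. TGI is the concentration that stops growth completely.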
# Legend:
# Assay in all cases: NCI tumour cell line growth inhibition, 48 h
# A549 NSCLC = system: A549 NSCLC
# CAKI-1 renal = system: CAKI-1 renal
# DLD-1 colon = system: DLD-1 colon
# NCI-H226 lung = system: NCI-H226 lung
# RPMI-8226 leukemia = system: RPMI-8226 leukemia
# RXF 393 renal = system: RXF 393 renal
# SK-MEL-5 melanoma = system: SK-MEL-5 melanoma
# LXFL 529 NSCLC = system: LXFL 529 NSCLC
# MDA-MB-435 = system: MDA-MB-435
# NCI/ADR-RES ovarian = system: NCI/ADR-RES ovarian
Compound,GI50 (A549 NSCLC) [µM],TGI (A549 NSCLC) [µM],GI50 (CAKI-1 renal) [µM],TGI (CAKI-1 renal) [µM],GI50 (DLD-1 colon) [µM],TGI (DLD-1 colon) [µM],GI50 (NCI-H226 lung) [µM],TGI (NCI-H226 lung) [µM],GI50 (RPMI-8226 leukemia) [µM],TGI (RPMI-8226 leukemia) [µM],GI50 (RXF 393 renal) [µM],TGI (RXF 393 renal) [µM],GI50 (SK-MEL-5 melanoma) [µM],TGI (SK-MEL-5 melanoma) [µM],TGI (LXFL 529 NSCLC) [µM],TGI (MDA-MB-435) [µM],TGI (NCI/ADR-RES ovarian) [µM],GI50 (LXFL 529 NSCLC) [µM],GI50 (MDA-MB-435) [µM],GI50 (NCI/ADR-RES ovarian) [µM]
CC[O-].CC[O-].O=C1C(=C([O-])c2ccccc2)C(=O)c2ccccc21.O=C1C(=C([O-])c2ccccc2)C(=O)c2ccccc21.[Ti+4],> 100,> 100,29.6,> 100,93.2,> 100,> 100,> 100,42.5,> 100,> 100,> 100,> 100,> 100,–,–,–,–,–,–
CSc1nc2c(c(O)c(C)c(=O)n2C2OC(COC(C)=O)C(OC(C)=O)C(OC(C)=O)C2OC(C)=O)c(=O)n1C (configuration not stated),–,> 100,–,> 100,–,> 100,–,> 100,–,> 100,–,> 100,–,> 100,> 100,–,–,–,–,–
COC(=O)c1nc(NN)[nH]c(=O)c1CCCCCc1c(C(=O)OC)[nH]c(NN)cc1=O,–,> 100,–,> 100,–,> 100,–,> 100,–,> 100,–,> 100,–,> 100,> 100,–,–,–,–,–
CC12CC3(C)CC(C)(C1)CC(N=[N+]=[N-])(C2)C3,–,> 100,–,> 100,–,> 100,–,> 100,–,> 100,–,> 100,–,> 100,> 100,–,–,–,–,–
Cc1cc(Cl)ccc1NC(=O)C(=O)Cc1nc2ccc(C(=O)c3ccccc3)cc2[nH]c1=O,–,> 100,–,> 100,–,> 100,–,> 100,–,–,–,> 100,–,> 100,> 100,–,–,–,–,–
Clc1ccc([O][In]([O]c2ccc(Cl)cn2)[O]c2ccc(Cl)cn2)nc1,> 100,> 100,> 100,> 100,> 100,> 100,> 100,> 100,–,–,> 100,> 100,15.8,76.8,–,–,–,–,–,–
COc1ccc(C(C2=C(C)C(=O)c3ccccc3C2=O)c2ccc(C(C)C)cc(=O)c2O)cc1 (configuration not stated),–,13.4,–,7.91,–,18.4,–,4.94,–,> 100,–,–,–,15.2,> 100,–,–,–,–,–
CC(C)N(C(=O)C12C3C4C1C1C2C3C41C(O)C(C)(C)C)C(C)C (configuration not stated),–,> 50,–,> 50,–,–,–,–,–,–,–,–,–,> 50,> 50,–,–,–,–,–
Fc1cccc(Cl)c1C1SCc2nc3ccccc3n21 (configuration not stated),–,> 100,–,> 100,–,> 100,–,> 100,–,60.2,–,> 100,–,29.7,> 100,–,–,–,–,–
COC(=O)c1ccc2c(c1)C(NC(C)=O)CCc1cc(OC)c(OC)c(OC)c1-2 (configuration not stated),–,> 100,–,77.4,–,> 100,–,1.17,–,> 100,–,6.65,–,0.216,> 100,< 0.01,3.71,–,–,–
CC(=O)N(CCN)CCN,–,> 10,–,> 10,–,> 100,–,–,–,> 10,–,> 10,–,> 100,> 10,–,–,–,–,–
C/C(=N/N(C=O)C[n+]1ccccc1)C(CN(CC(C)C)CC(C)C)C(=O)Nc1ccc(C)cc1C (configuration not stated),–,> 100,–,> 100,–,> 100,–,–,–,> 100,–,> 100,–,> 100,–,–,–,–,–,–
CC(C)N(C(C)C)[PH+]1O[PH+](N(C(C)C)C(C)C)O[PH+](N(C(C)C)C(C)C)O[PH+](N(C(C)C)C(C)C)O[PH+](N(C(C)C)C(C)C)O1.[C-]#[O+].[C-]#[O+].[C-]#[O+].[C-]#[O+].[C-]#[O+].[C-]#[O+].[C-]#[O+].[Cr].[Cr] (configuration not stated),> 100,> 100,> 100,> 100,> 100,> 100,> 100,> 100,> 100,> 100,> 100,> 100,> 100,> 100,> 100,–,–,> 100,–,–
Cc1cc(O)c2c(c1)C(O)(c1ccc3c(c1O)C(=O)c1c(O)cc(C)cc1C3(O)C1OC(CO)C(O)C(O)C1O)c1cccc(O)c1C2=O (configuration not stated),–,32.2,–,31.7,–,23.7,–,–,–,> 100,–,24.7,–,33,24.5,–,–,–,–,–
COc1cc2nncc(Sc3cnnc4ccccc34)c2cc1OC,–,71.9,–,> 100,–,49.6,–,67.3,–,77.7,–,–,–,29.5,> 100,–,–,–,–,–
CSc1ccc(C2=Nn3c(nnc3-c3ccc(F)c(Cl)c3)SC2)cc1,12.5,29.7,22.5,> 100,–,–,18.4,75.7,18.6,> 100,4.46,19.4,11.9,52.7,–,5.21,22.6,–,1.5,5.17
C=C1C(=O)O[C@@H]2C[C@@]3(C)CC(=O)C=C(C)[C@@H]3C[C@H]12,–,> 100,–,21.6,–,–,–,> 100,–,5.45,–,18.2,–,22.9,–,30.5,40.4,–,–,–
O=C(C(=O)c1ccc(Cc2ccc(C(=O)C(=O)c3ccccc3)cc2)cc1)c1ccccc1,–,> 100,–,> 100,–,> 100,–,> 100,–,–,–,> 100,–,> 100,> 100,–,–,–,–,–
O=c1nc(-c2ccccc2)c2c3c(cccn13)CCC2,–,> 100,–,> 100,–,> 100,–,> 100,–,> 100,–,> 100,–,> 100,> 100,–,–,–,–,–
Cc1cc2c(cc1C)NC1=C(N2)OC(c2c[nH]c3ccc(COc4ccccc4)cc23)C1=O (configuration not stated),–,> 100,–,> 100,–,–,–,> 100,–,> 100,–,> 100,–,> 100,–,> 100,> 100,–,–,–
N/C(=N\OC(=O)c1ccccc1)C(C(=O)NOC(=O)c1ccccc1)C1CCCCC1 (configuration not stated),2.08,5.05,0.5,1.73,–,–,15.8,34.1,3.12,12.2,8.59,65.1,10.3,22.8,–,5.59,16,–,2.21,3.79
